Measured values taken from US20250051293A1, “NOVEL OXADIAZOLE DERIVATIVE AND USE THEREOF” (CELROS BIOTECH, priority 2021, published 2025).

Experiments:
[1] = system: U87; assay: Mouse model xenografted with brain tumor glioblastoma U87; type: in vivo, mice
Method: To confirm the therapeutic effect on brain tumor glioblastoma, U87 (5×10^4), a human brain tumor cell line, was xenografted into the brains of mice to establish a brain tumor model, followed by oral administration of the drugs.
Different experimental groups were evaluated for each compound.
First, with respect to the compound of Example 1, the experimental groups were divided into Vehicle (n=3) and the compound of Example 1, 50 mg/kg (n=3) and the administered with the drug orally 5 times a week 20 days after U87 xenografting.
With respect to the compound of Example 2, the experimental groups were divided into Vehicle (n=9), TMZ 5 mg/kg (Temozolomide, n=10, 2 times per week), the compound of Example 2, 50 mg/kg (n=8, 5 times per week), and combination (TMZ+the compound of Example 2, n=7), and began receiving the drug 20 days after U87 xenografting.

[2] = molecular target: T1, human NOX4 (Homo sapiens, UniProt Q9NPH5); assay: Lucigenin chemiluminescence assay, drosophila membranes expressing hNOX4; type: biochemical; settings: average of three repeats
T1 construct: made in house; host or cells: transgenic Drosophila (Da-GAL4 driven UAS-hNOX4, dDuox RNAi background); membranes from homogenized flies
T1 sequence (Q9NPH5 1-578): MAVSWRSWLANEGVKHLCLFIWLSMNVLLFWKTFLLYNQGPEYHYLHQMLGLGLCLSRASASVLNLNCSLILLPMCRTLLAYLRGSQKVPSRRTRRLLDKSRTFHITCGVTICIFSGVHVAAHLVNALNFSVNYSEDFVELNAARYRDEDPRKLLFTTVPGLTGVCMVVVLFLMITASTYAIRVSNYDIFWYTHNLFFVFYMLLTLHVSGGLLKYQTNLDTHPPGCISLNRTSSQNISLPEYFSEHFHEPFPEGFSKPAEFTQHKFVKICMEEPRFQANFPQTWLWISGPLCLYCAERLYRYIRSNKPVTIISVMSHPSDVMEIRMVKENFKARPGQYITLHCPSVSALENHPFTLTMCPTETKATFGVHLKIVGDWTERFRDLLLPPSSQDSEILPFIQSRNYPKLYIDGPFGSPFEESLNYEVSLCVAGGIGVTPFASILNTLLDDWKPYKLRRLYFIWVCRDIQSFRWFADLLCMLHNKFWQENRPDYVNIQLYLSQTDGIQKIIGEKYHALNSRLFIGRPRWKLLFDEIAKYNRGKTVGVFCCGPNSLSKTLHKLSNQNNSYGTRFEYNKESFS
Method: Human NOX isozymes were provided from transgenic flies expressing human NOX isozymes from the daughterless (Da)-GAL4 promoter. The genotype of each fly line is shown below. • human NOX2:UAS-hNOX2/UAS-dDuox-RNAi; Da-GAL4/+ • human NOX4:UAS-hNOX4/UAS-dDuox-RNAi; Da-GAL4/+
Transgenic flies were homogenized in PBS containing protease inhibitors (aprotinin, leupeptin) to obtain drosophila membranes of each NOX isozyme. The membranes were incubated with the compounds (100 μM, 10 μM, 1 μM, 0.1 μM, 0.01 μM, 0.001 μM, and 0 μM) for 10 minutes in a shaker. Then, to the membranes, a mixture of 500 μM NADPH (R-nicotinamide adenine dinucleotide 2′-phosphate reduced tetrasodium salt hydrate; Sigma-Aldrich) and 400 μM lucigenin (N,N′-dimethyl-9,9-biacridinium dinitrate; Sigma-Aldrich) in 1× HEPES (4-(2-hydroxyethyl)-1-piperazineethanesulfonic acid) buffer was added. Lucigenin chemiluminescence was detected at 1-minute intervals for 10 minutes using a multimode microplate reader (SpectraMax iD3, Molecular Devices). IC50 values were calculated with Graph-Pad Prism 5 (GraphPad Software).
The lucigenin chemiluminescence assay was performed with drosophila membranes expressing hNOX1, hNOX2, and hNOX4. The assay was repeated three times and the IC50 values were averaged.

[3] = system: MPTP-induced Parkinson's disease; assay: MPTP-induced Parkinson's disease mouse model; type: in vivo, mice; settings: for MPTP-induced increase in number of microglia (Iba1+ cells) in the substantia nigra and striatum / density of Th+ fibers in the striatum / number of dopaminergic neurons (Th+ cells) in the substantia nigra: 30 mg/kg oral for 8 days; for density of Th+ fibers in the striatum / number of dopaminergic neurons (Th+ cells) in the substantia nigra / pole test T-total / pole test T-turn: compared to the vehicle-treated group; for pole test T-total / pole test T-turn: Day 6 after MPTP, 30 mg/kg oral
Method: To evaluate the effect of compounds of Example 1 and Example 2 on MPTP (1-methyl-4-phenyl-1,2,3,6-tetrahydropyridine hydrochloride; Sigma-Aldrich)-induced Parkinson's disease, C57BL/6 male mice (9 weeks old) were randomly divided into three groups. • saline+vehicle • MPTP+vehicle • MPTP+compound of Example 1 or […] (30 mg/kg)
To induce Parkinson's disease, mice were intraperitoneally injected with MPTP (25 mg/kg) four times at 2-hour intervals, while control mice were treated with an equal volume of saline. The compounds of Example 1 or Example 2 were dissolved in a solvent consisting of 10% DMAC (dimethyl acetamide, Sigma-Aldrich), 10% Tween 80 (Sigma-Aldrich) and 80% saline (JW Pharmaceuticals). Mice were orally administered with 30 mg/kg of the compound of Example 1 or Example 2 starting 1 day prior to MPTP injection for 8 days.
Seven days after MPTP administration (one day after the last administration of the compound of Example 1 or Example 2), experimental animals were sacrificed by perfusion with saline (JW Pharmaceuticals) followed by 10% formalin (Sigma-Aldrich), and brain tissues were obtained. The tissues were cut into 30 μm thick slices using a cryostat (Leica) and stored in an anti-freezing solution (30% sucrose, 1% polyvinylpyrrolidone, and 30% ethylene glycol in 1×PBS) at −20° C.
Anti-tyrosine hydroxylase antibody (1:2000-4000, ABCAOM) was used to detect dopaminergic neurons and anti-Iba1 antibody (1:1000, Wako) was used to measure microglia. Biotinylated goat anti-rabbit antibody (VECTOR, BA-1000) was used as a secondary antibody and ABC solution (VECTOR, BA-1000) was used. The immunoreactive sections were then incubated with 3-3′ diaminobenzidine (DAB, Dako) to change the color to brown.
For the substantia nigra, six coronal sections, one every 150 μm, between −2.80 mm and −3.80 mm bregma were used, and for the striatum, three coronal sections between +0.98 mm and +0.50 mm bregma were collected. The coronal sections were stained with anti-tyrosine hydroxylase antibody or anti-Iba1 antibody and then analyzed by counting the number of stained cells or using ImagePro plus 7.0 software.
The mice were moved to a home cage where they were placed head up in the top of a 60 cm vertical pole with a diameter of 1 cm, and were then allowed to descend themselves and stay for about 15 seconds in the home cage.
The above procedure was repeated three times, all of which were videotaped, and the time for the mouse's head to turn completely downward (T-turn) and total time to descend to the floor (T-total) were analyzed.

[4] = Example 1 study: 50 mg/kg orally 5 times a week

O=C(Nc1nnc(-c2ccccc2)o1)c1ccc(F)c(C(F)(F)F)c1 [Example 2, 4-fluoro-N-(5-phenyl-1,3,4-oxadiazol-2-yl)-3-(trifluoromethyl)benzamide]
tumor growth rate (MRI) ([1]; Example 2 study: Example 2 50 mg/kg 5 times per week, TMZ 5 mg/kg 2 times per week): inhibited the tumor growth rate
median survival time ([1]; Example 2 study: Example 2 50 mg/kg 5 times per week, TMZ 5 mg/kg 2 times per week, from 20 days after xenografting, vehicle 42 days): 46 days
IC50 [2]: 440 nM
MPTP-induced increase in number of microglia (Iba1+ cells) in the substantia nigra and striatum [3]: effectively reduced
density of Th+ fibers in the striatum [3]: higher
number of dopaminergic neurons (Th+ cells) in the substantia nigra [3]: higher
pole test T-total [3]: significant decrease
pole test T-turn [3]: decrease

O=C(Nc1nnc(-c2cccc(Cl)c2)o1)c1cc(F)cc(C(F)(F)F)c1 [Example 1, N-(5-(3-chlorophenyl)-1,3,4-oxadiazol-2-yl)-3-fluoro-5-(trifluoromethyl)benzamide]
brain tumor growth (MRI) [1, 4]: inhibition of brain tumor growth
extension of median survival compared to the vehicle group [1, 4]: 17 days
median survival ([1]; Example 1 study: 50 mg/kg orally 5 times a week from 20 days after U87 xenografting, vehicle 31 days): 48 days
IC50 [2]: 160 nM
MPTP-induced increase in number of microglia (Iba1+ cells) in the substantia nigra and striatum [3]: effectively reduced
density of Th+ fibers in the striatum [3]: higher
number of dopaminergic neurons (Th+ cells) in the substantia nigra [3]: higher
pole test T-total [3]: significant decrease
pole test T-turn [3]: decrease
